Laboratory results reported in the supplement of paper PMC10307832.

What was measured:
Experiment in all cases: relative viability (nuclei count vs DMSO), 5 days (fraction); higher = more cells survive
[1] = compound: CN(C)C[C@@H]1CCn2cc(c3ccccc32)C2=C(C(=O)NC2=O)c2cn(c3ccccc23)CCO1 [Ruboxistaurin] + CC(=O)Nc1cccc(-n2c(=O)n(C3CC3)c(=O)c3c(Nc4ccc(I)cc4F)n(C)c(=O)c(C)c32)c1 [Trametinib] (partner 0.02 µM)
Method in brief: (§1)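 Lung cancer cell lines in 1536-well plates got either a single drug or a fixed anchor-drug dose together with five library-drug doses (not always all listed) in √10 steps, by pin tool, on the day after seeding. Nuclei were counted after 5 days, and relative viability is the treated-to-vehicle ratio of nuclei counts. Values are medians of duplicate plates.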

[2] = compound: CN(C)C[C@@H]1CCn2cc(c3ccccc32)C2=C(C(=O)NC2=O)c2cn(c3ccccc23)CCO1 [Ruboxistaurin] + C[C@@H](Oc1cc(-c2cnn(C3CCNCC3)c2)cnc1N)c1c(Cl)ccc(F)c1Cl [Crizotinib] (partner 1 µM)
Method in brief: as §1

[3] = compound: CN(C)C[C@@H]1CCn2cc(c3ccccc32)C2=C(C(=O)NC2=O)c2cn(c3ccccc23)CCO1 [Ruboxistaurin] + C[C@]1(O)C[C@@H](c2nc(-c3ccc4ccc(-c5ccccc5)nc4c3)c3c(N)nccn32)C1 [Linsitinib] (partner 1 µM)
Method in brief: as §1

[4] = compound: CN(C)C[C@@H]1CCn2cc(c3ccccc32)C2=C(C(=O)NC2=O)c2cn(c3ccccc23)CCO1 [Ruboxistaurin] + Nc1nc2[nH]cc(CCc3ccc(C(=O)N[C@@H](CCC(=O)O)C(=O)O)cc3)c2c(=O)[nH]1 [Pemetrexed] (partner 0.2 µM)
Method in brief: as §1

Ruboxistaurin + Olaparib = compound: CN(C)C[C@@H]1CCn2cc(c3ccccc32)C2=C(C(=O)NC2=O)c2cn(c3ccccc23)CCO1 [Ruboxistaurin] + O=C(c1cc(Cc2n[nH]c(=O)c3ccccc23)ccc1F)N1CCN(C(=O)C2CC2)CC1 [Olaparib] (partner 8 µM)
Method in brief: as §1

| Cell Line | relative viability ([1]; first compound 0.08 µM) | relative viability ([1]; first compound 0.8 µM) | relative viability ([1]; first compound 2.53 µM) | relative viability ([1]; first compound 8 µM) | relative viability ([2]; first compound 0.08 µM) | relative viability ([2]; first compound 0.8 µM) | relative viability ([2]; first compound 2.53 µM) | relative viability ([2]; first compound 8 µM) | relative viability ([3]; first compound 0.08 µM) | relative viability ([3]; first compound 0.8 µM) | relative viability ([3]; first compound 2.53 µM) | relative viability ([3]; first compound 8 µM) | relative viability ([4]; first compound 0.08 µM) | relative viability ([4]; first compound 0.8 µM) | relative viability ([4]; first compound 2.53 µM) | relative viability ([4]; first compound 8 µM) | relative viability (Ruboxistaurin + Olaparib; first compound 0.08 µM) | relative viability (Ruboxistaurin + Olaparib; first compound 0.8 µM) | relative viability (Ruboxistaurin + Olaparib; first compound 2.53 µM) | relative viability (Ruboxistaurin + Olaparib; first compound 8 µM) |
| --- | --- | --- | --- | --- | --- | --- | --- | --- | --- | --- | --- | --- | --- | --- | --- | --- | --- | --- | --- | --- |
| LXF-289 | 0.653 | 0.631 | 0.66 | 0.684 | 0.826 | 0.758 | 0.826 | 0.951 | 0.925 | 0.951 | 0.966 | 1.05 | 0.884 | 0.91 | 0.906 | 1.02 | 1.08 | 1.01 | 1.07 | 1.18 |
| NCI-H23 | 0.375 | 0.346 | 0.409 | 0.32 | 0.542 | 0.395 | 0.552 | 0.533 | 0.627 | 0.402 | 0.544 | 0.484 | 0.73 | 0.541 | 0.666 | 0.45 | 0.41 | 0.251 | 0.361 | 0.254 |
| NCI-H322M | 0.538 | 0.477 | 0.535 | 0.404 | 0.96 | 0.863 | 0.949 | 1.11 | 0.969 | 0.826 | 0.861 | 0.779 | 0.646 | 0.528 | 0.596 | 0.47 | 0.764 | 0.675 | 0.805 | 0.329 |
| NCI-H358 | 0.159 | 0.116 | 0.125 | 0.112 | 0.518 | 0.517 | 0.609 | 0.573 | 0.835 | 0.59 | 0.63 | 0.367 | 0.171 | 0.175 | 0.177 | 0.162 | 0.748 | 0.587 | 0.604 | 0.458 |
| NCI-H441 | 0.523 | 0.453 | 0.529 | 0.366 | 0.787 | 0.708 | 0.771 | 0.636 | 0.633 | 0.508 | 0.495 | 0.458 | 0.254 | 0.307 | 0.287 | 0.278 | 0.498 | 0.532 | 0.643 | 0.643 |
| NCI-H460 | 0.225 | 0.113 | 0.14 | 0.13 | 0.772 | 0.822 | 1.02 | 0.537 | 0.919 | 0.6 | 0.855 | 0.349 | 0.0661 | 0.0571 | 0.0621 | 0.0636 | 0.461 | 0.398 | 0.415 | 0.391 |
| NCI-H520 | 0.831 | 0.627 | 0.808 | 0.617 | 0.838 | 0.698 | 0.758 | 0.693 | 0.991 | 0.998 | 0.985 | 1.12 | 0.666 | 0.506 | 0.532 | 0.494 | 0.321 | 0.341 | 0.328 | 0.291 |
